The values below come from ChEMBL document CHEMBL4266054, “Kinase Inhibitors for Treatment of Cancer and Inflammation” (ACS Med Chem Lett, 2018).

SMILES strings stand for the structures.

Series [1] addresses T1, Inhibitor of nuclear factor kappa-B kinase subunit epsilon (Homo sapiens) (UniProt Q14164).
T1 sequence (whole entry): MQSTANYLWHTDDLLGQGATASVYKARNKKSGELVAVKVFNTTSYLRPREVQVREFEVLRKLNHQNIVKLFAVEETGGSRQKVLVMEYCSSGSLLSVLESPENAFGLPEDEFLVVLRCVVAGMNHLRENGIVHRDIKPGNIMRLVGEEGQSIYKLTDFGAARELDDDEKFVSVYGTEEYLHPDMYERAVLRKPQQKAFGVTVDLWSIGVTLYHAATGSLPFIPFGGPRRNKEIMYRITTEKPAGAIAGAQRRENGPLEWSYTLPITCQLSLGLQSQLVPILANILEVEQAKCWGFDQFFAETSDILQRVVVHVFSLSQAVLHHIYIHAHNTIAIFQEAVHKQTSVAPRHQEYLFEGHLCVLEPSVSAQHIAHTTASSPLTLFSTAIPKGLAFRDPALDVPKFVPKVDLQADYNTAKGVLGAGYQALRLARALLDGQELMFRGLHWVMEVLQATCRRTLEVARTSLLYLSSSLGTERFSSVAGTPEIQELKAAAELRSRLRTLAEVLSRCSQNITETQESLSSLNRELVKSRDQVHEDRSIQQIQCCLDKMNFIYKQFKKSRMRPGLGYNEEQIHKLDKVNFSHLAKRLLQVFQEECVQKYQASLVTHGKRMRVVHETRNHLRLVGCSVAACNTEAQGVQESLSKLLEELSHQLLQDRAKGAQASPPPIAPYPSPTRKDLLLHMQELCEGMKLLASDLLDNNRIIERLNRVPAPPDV
The series is described as follows: Inhibition of IKK-epsilon (unknown origin) using fluorescein-labelled DRHDSGLDSMKDE as substrate after 1 hr by TR-FRET assay.

Series [2] concerns the target T2, Serine/threonine-protein kinase TBK1 (Homo sapiens) (UniProt Q9UHD2).
T2 sequence (whole entry): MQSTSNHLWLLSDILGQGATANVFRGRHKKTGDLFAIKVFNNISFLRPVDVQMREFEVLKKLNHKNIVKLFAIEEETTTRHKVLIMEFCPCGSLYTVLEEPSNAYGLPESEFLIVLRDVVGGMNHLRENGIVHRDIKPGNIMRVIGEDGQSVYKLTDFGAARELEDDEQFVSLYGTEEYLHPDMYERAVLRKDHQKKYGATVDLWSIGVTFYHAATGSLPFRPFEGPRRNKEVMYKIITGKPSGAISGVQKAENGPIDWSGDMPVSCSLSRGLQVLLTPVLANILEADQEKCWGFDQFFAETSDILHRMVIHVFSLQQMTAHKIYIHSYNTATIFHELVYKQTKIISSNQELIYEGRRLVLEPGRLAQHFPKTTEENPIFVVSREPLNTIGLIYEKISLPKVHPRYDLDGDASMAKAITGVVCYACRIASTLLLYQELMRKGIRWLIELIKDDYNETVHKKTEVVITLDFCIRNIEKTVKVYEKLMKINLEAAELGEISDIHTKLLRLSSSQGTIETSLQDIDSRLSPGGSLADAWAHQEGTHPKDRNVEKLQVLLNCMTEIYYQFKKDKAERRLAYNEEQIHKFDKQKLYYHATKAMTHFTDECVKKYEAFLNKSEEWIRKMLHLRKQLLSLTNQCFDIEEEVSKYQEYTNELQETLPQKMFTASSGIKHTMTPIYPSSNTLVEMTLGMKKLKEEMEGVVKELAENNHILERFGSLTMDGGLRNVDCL
Description: Inhibition of TBK1 (unknown origin) using fluorescein-labelled DRHDSGLDSMKDE as substrate after 1 hr by TR-FRET assay. Background: TR-FRET usually uses a lanthanide donor and a delayed reading to cut background.

The target of series [3] is Serine/threonine-protein kinase SIK2 (Homo sapiens) (UniProt Q9H0K1). Description: Inhibition of human SIK2 using AMARAASAAALARRR as substrate in presence of [gamma33P]ATP by kinase hotspot assay.
Sequence of Serine/threonine-protein kinase SIK2 (Homo sapiens) (Q9H0K1 whole entry, looked up): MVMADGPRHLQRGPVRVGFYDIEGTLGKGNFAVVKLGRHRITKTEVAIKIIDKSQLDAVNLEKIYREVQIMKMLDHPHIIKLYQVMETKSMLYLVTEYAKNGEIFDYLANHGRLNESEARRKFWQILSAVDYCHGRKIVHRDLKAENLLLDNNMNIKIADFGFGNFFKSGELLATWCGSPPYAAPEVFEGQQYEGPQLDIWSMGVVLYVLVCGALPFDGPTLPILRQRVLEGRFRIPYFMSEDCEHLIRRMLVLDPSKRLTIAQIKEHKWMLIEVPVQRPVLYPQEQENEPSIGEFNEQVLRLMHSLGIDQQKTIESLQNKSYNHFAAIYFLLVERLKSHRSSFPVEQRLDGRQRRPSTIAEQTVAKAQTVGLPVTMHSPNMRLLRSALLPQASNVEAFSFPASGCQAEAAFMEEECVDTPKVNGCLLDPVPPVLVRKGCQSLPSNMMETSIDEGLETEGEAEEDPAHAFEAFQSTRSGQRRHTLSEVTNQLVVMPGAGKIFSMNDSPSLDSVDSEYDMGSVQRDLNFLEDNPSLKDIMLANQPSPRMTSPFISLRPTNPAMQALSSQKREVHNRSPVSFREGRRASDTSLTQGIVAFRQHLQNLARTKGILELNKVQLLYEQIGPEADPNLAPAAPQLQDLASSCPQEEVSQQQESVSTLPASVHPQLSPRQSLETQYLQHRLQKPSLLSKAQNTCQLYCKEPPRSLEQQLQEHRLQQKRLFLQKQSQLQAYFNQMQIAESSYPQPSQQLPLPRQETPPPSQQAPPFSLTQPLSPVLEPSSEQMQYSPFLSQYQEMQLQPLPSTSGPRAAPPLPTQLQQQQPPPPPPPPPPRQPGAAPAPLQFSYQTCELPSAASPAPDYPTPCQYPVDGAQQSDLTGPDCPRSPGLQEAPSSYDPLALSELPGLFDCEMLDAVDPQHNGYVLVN
The nature of series [4]: Half life in Balb/c mouse at 0.5 mg/kg, iv by mass spectrometry. Format: ADME, organism-based. The following applies: in vivo.
Series [5] in a line: Volume of distribution in Balb/c mouse at 0.5 mg/kg, iv by mass spectrometry. Format: ADME, organism-based. The following applies: in vivo.

Turning to `N#Cc1cc(-c2ccnc(Nc3ccc(CN4CCNC(=O)C4)nc3)n2)cnc1N1CC[C@H](F)C1`, the INH in series [1] and in series [2] was < 15 nM throughout.

Take `CCN1CCN(Cc2ccc(Nc3nccc(-c4cnc(N5CC[C@@H](F)C5)c(C#N)c4)n3)cn2)CC1`: the INH in series [1] was 21 nM; in series [2], 20 nM.

For `CCN1CCN(Cc2ccc(Nc3nccc(-c4cnc(N5CC[C@H](F)C5)c(C#N)c4)n3)cn2)CC1`, the INH in series [3] was found to be 7 nM; in series [1], 16 nM; in series [2] it was 9 nM.

Turning to `CN1CCN(Cc2ccc(Nc3nccc(-c4cnc(N5CC[C@H](F)C5)c(C#N)c4)n3)cn2)CC1`, the INH in series [1] was 24 nM; in series [2] it was 17 nM.

A word on the half-life: it is how long it takes for the measured level to halve. For the compound `N#Cc1cc(-c2ccnc(Nc3ccc(NC(=O)CN4CCOCC4)nc3)n2)cnc1N1CC[C@H](F)C1`, the INH in series [1] and in series [2] was < 30 nM in each case. The half-life in series [4] is 30 min.

For orientation: Vd means a proportionality between amount in the body and measured concentration, not a real space. A low value points to confinement near the circulation. Regarding `N#Cc1cc(-c2ccnc(Nc3ccc(CN4CCOCC4)nc3)n2)cnc1N1CC[C@H](F)C1`, the INH in series [1] and in series [2] was < 15 nM in each case. Also, the Vd in series [5] amounted to 0.3 L/kg. Moreover, the half-life in series [4] is 30 min.
